Data from patent US11236111B2, “Hepatitis B antiviral agents” (Enanta Pharmaceuticals, Inc., priority 2019, dated 2022).

System: HBV
Experiment: HepAD38 anti-HBV assay: reduction of viral product accumulation (virion DNA by qPCR, HBsAg or HBeAg by ELISA)
Format: cell-based
Conditions: Hepatitis B virus, 120 h; HepAD38 cells, harvest five days after compound addition; 50% reduction of viral product vs no drug controls; class symbols
Experimental: Methods: HepAD38 cells are maintained as previously reported (Ladner et al, Antimicrob. Agents Chemother. 1997, […], 1715). Briefly, cells are passaged upon attaining confluency in DMEM/F12 media in the presence of 10% FBS, Penn/Strep, 250 μg/mL G418, and 1 μg/ml tetracycline. Novel compounds are screened by first washing cells three times with PBS to remove tetracycline, and plating in 96 well plates at 35,000 cells/well. Compounds dissolved in DMSO are then diluted 1:200 into wells containing cells. Five days after compound addition, material is harvested for analysis. For an extended 8 day analysis, cells are plated and treated as described above, but media and compound are refreshed on d2 and d5 post initial treatment.
On harvest day, virion DNA is obtained by lysing with Sidestep Lysis and Stabilization Buffer and then quantified via quantitative real time PCR. Commercially available ELISA kits are used to quantitate the viral proteins HBsAg (Alpco) or HbeAg (US Biological) by following the manufacturer's recommended protocol after diluting samples to match the linear range of their respective assays. Irrespective of readout, compound concentrations that reduce viral product accumulation in the cell lysates or supernatants by 50% relative to no drug controls (EC50) are reported; EC50 ranges are as follows: A<0.1 μM; B 0.1-0.4 μM; C>0.4 μM.

Row | SMILES | EC50 [nM]
1 | C=CCN1CC2(CC3=C(c4ccn(C(F)F)n4)[C@H](c4ccc(F)cc4Cl)N=C(c4nccs4)N3C2)OC1=O (stereo partly shown) [Example 2] | > 400
2 | C=CCN1C[C@@]2(CC3=C(c4ccn(C(F)F)n4)[C@H](c4ccc(F)cc4Cl)N=C(c4nccs4)N3C2)NC1=O [Example 4] | < 100
3 | O=C1N[C@@]2(CO1)CC1=C(c3cnn(C(F)F)c3)[C@H](c3ccc(Cl)c(F)c3)N=C(c3nccs3)N1C2 [Example 9] | < 100
4 | O=C1N[C@@]2(CO1)CC1=C(c3ccn(C(F)F)n3)[C@H](c3ccc(Cl)c(F)c3)N=C(c3nccs3)N1C2 [Example 7] | < 100
5 | C=CCN1C[C@]2(CC3=C(c4ccn(C(F)F)n4)[C@H](c4ccc(F)cc4Cl)N=C(c4nccs4)N3C2)NC1=O [Example 5] | 100 to 400
6 | C#CCN1CC2(CC3=C(c4ccn(C(F)F)n4)[C@H](c4ccc(F)cc4Cl)N=C(c4nccs4)N3C2)OC1=O (stereo partly shown) [Example 1] | > 400
7 | O=C1N[C@@]2(CO1)CC1=C(c3ccn(C(F)F)n3)[C@H](c3ccc(F)c(F)c3)N=C(c3nccs3)N1C2 [Example 15] | < 100
8 | O=C1OC2(CC3=C(c4ccn(C(F)F)n4)[C@H](c4ccc(F)cc4Cl)N=C(c4nccs4)N3C2)CN1Cc1ccccc1 (stereo partly shown) [Example 3] | > 400
9 | COC(=O)C1=C2C[C@@]3(COC(=O)N3)CN2C(c2nccs2)=N[C@H]1c1ccc(Cl)c(F)c1 [Example 11] | < 100
10 | O=C1N[C@]2(CO1)CC1=C(c3ccn(C(F)F)n3)[C@H](c3ccc(Cl)c(F)c3)N=C(c3nccs3)N1C2 [Example 13] | < 100
11 | O=C1N[C@@]2(CO1)CC1=C(c3cnn(C(F)F)n3)[C@H](c3ccc(F)cc3Cl)N=C(c3nccs3)N1C2 [Example 6] | < 100

Same assay, conditions: Hepatitis B virus, 120 h; HepAD38 cells, harvest five days after compound addition; 50% reduction of viral product vs no drug controls; given as numeric bound

Row | SMILES | EC50 [nM]
12 | COC(=O)C1=C2C[C@@]3(COC(=O)N3)CN2C(c2nccs2)=N[C@@H]1c1ccc(Cl)c(F)c1 [Example 12] | > 100
13 | O=C1N[C@]2(CO1)CC1=C(c3ccn(C(F)F)n3)[C@@H](c3ccc(Cl)c(F)c3)N=C(c3nccs3)N1C2 [Example 14] | > 100
14 | O=C1N[C@@]2(CO1)CC1=C(c3ccn(C(F)F)n3)[C@@H](c3ccc(Cl)c(F)c3)N=C(c3ccccn3)N1C2 [Example 18] | > 100
15 | O=C1N[C@@]2(CO1)CC1=C(c3ccn(C(F)F)n3)[C@H](c3ccc(Cl)c(F)c3)N=C(c3ccccn3)N1C2 [Example 17] | > 100
16 | O=C1N[C@@]2(CO1)CC1=C(c3ccn(C(F)F)n3)[C@@H](c3ccc(F)c(F)c3)N=C(c3nccs3)N1C2 [Example 16] | > 100
17 | O=C1N[C@@]2(CO1)CC1=C(c3ccn(C(F)F)n3)[C@@H](c3ccc(Cl)c(F)c3)N=C(c3nccs3)N1C2 [Example 8] | > 100
18 | O=C1N[C@@]2(CO1)CC1=C(c3cnn(C(F)F)c3)[C@@H](c3ccc(Cl)c(F)c3)N=C(c3nccs3)N1C2 [Example 10] | > 100

System: not listed separately
Experiment: Compound toxicity, total ATP levels (ATPLite)
Format: cell-based
Conditions: human, HepG2 cells; three days after compound addition; 50% reduction of total ATP vs no drug controls
Experimental: Compound toxicity is evaluated by seeding cells at 15,000 cells/well and treating with compound as described above.

Row | SMILES | CC50 at 3 days [nM]
19 | O=C1N[C@@]2(CO1)CC1=C(c3ccn(C(F)F)n3)[C@H](c3ccc(Cl)c(F)c3)N=C(c3nccs3)N1C2 [Example 7] | > 25000
20 | O=C1N[C@@]2(CO1)CC1=C(c3ccn(C(F)F)n3)[C@H](c3ccc(F)c(F)c3)N=C(c3nccs3)N1C2 [Example 15] | > 25000
21 | O=C1N[C@]2(CO1)CC1=C(c3ccn(C(F)F)n3)[C@H](c3ccc(Cl)c(F)c3)N=C(c3nccs3)N1C2 [Example 13] | > 25000
22 | O=C1N[C@@]2(CO1)CC1=C(c3cnn(C(F)F)n3)[C@H](c3ccc(F)cc3Cl)N=C(c3nccs3)N1C2 [Example 6] | > 25000
